Experimental data as given in patent US9133186B2, “Hetero ring-fused imidazole derivative having AMPK activating effect” (Shionogi & Co., Ltd., priority 2010, dated 2015).

Assays:
Human AMPK α2β2γ1 = target: T1, Human AMPK α2β2γ1 (Homo sapiens, UniProt O43741+P54646); assay: AMPK activator evaluation, Test Example 2 (CaMKK2-phosphorylated enzyme, mobility shift); assay type: biochemical; details: human AMPK α2β2γ1 phosphorylated with CaMKK2, control = 100%; for Emax: read-out: Emax (maximum rate of increase in activity within the measurement range)
T1 construct: The full length cDNAs of human AMPK P2 (NM_005399.3) and human AMPK α2 (NM_006252.3); 6×His (N); made in house; host or cells: Escherichia coli BL21 CodonPlus (DE3)-RIL
Procedure: The full length cDNAs of human AMPK P2 (NM_005399.3) and human AMPK α2 (NM_006252.3) were inserted into the MCS1 and MCS2 of the pETDuet-1 vector to prepare a human AMPK β2 and human AMPK α2 (6×His tag at the 5′ terminus) expressing plasmid. The plasmid was contransfected with an expression plasmid, in which the full length cDNA of human AMPK γ1 (NM_002733.3) had been inserted into pET28b(+), into BL21 CodonPlus (DE3)-RIL to obtain an expression strain. The expression strain was cultured in TB medium, followed by induction with 0.5 mM IPTG, and cultured at 25° C. for 3 hours and then harvested. After ultrasonication, supernatant was collected and applied to Histrap column (GE) and RESOUECE Q 6 ml column (GE) to prepare 12.5 mg of purified sample containing three types of subunit from 1.8 L of broth.
An expression vector, in which the full length cDNA of human CAMKK β (NM_172226.1) had been inserted into pGEX-6P-3, was transfected into BL21 Star (DE3). The expression strain was cultured in TB medium, followed by induction with 0.5 mM IPTG, and cultured at 25° C. for 3 hours and then harvested. After ultrasonication, supernatant was collected and applied to GSTrap FF column (GE) to prepare 14 mg of GST-fused CAMKK β from 720 ml of broth.
Thus, phosphorylation treatment was carried out as pretreatment.
Human AMPK α2β2γ1 in an amount to give a conversion rate of approximately 10% by reaction for 2 hours, and CaMKK2 in an amount capable of sufficiently imparting activity to AMPK for one hour were mixed in a buffer solution consisting of a 50 mM HEPES-NaOH buffer solution (pH 7.0), 100 mM NaCl, 5 mM magnesium chloride, 0.1% bovine serum albumin, 0.2 mM sodium orthovanadate(V), 1 mM ethylene glycol-bis(2-aminoethyl ether)-N,N,N′,N′-tetraacetic acid (EGTA), 5 mM disodium β-glycerophosphate, 1 mM dithiothreitol and 0.2 mM ATP, and the obtained liquid was left to stand at 25° C. for 1 to 1.5 hours to sufficiently phosphorylate AMPK.
After that, to the enzyme liquid, which had been subjected to phosphorylation treatment, a compound dissolved in DMSO was added so as to have a 1% DMSO concentration. The obtained liquid was left to stand for 10 minutes.
(§1) To the liquid, a substrate solution consisting of a 50 mM HEPES-NaOH buffer solution (pH 7.0), 100 mM NaCl, 10 mM magnesium chloride, 0.1% bovine serum albumin, 0.2 mM sodium orthovanadate(V), 1 mM ethylene glycol-bis(2-aminoethyl ether)-N,N,N′,N′-tetraacetic acid (EGTA), 5 mM disodium glycerophosphate, 2 mM dithiothreitol, 0.4 mM ATP and 3 μM FL-Peptide 7 (manufactured by Caliper Life Sciences, Inc.) was added in equal amount (10 μl in total). The obtained liquid was allowed to react at 25° C. for 2 hours, and 10 μl of 20 mM EDTA was then added thereto to stop the reaction.
(§2) To detect phosphorylated fluorescent substrates, the reaction liquid was applied to a measuring device, LabChip EZ Reader II manufactured by Caliper Life Science, Inc., for detecting fluorescence by using differences in mobility due to differences in charge. The setting conditions for the device were pressure, −1.5 PSI; upstream voltage, −2250 V; downstream voltage, −400 V; post sample buffer sip time, 40 seconds; final delay, 120 seconds; and peak order, Product First.
A conversion rate was calculated from the peak heights of the resulting substrate and product. The conversion rate when not containing a compound was used as a control, and a concentration dependent curve was made by plotting the rate of increase in activity to the control at each concentration of a compound.

human AMPK α1β1γ1 enzyme = target: T2, human AMPK α1β1γ1 enzyme (Homo sapiens, UniProt Q13131+Q9Y478); assay: AMPK activator evaluation, Test Example 1 (mobility shift, FL-Peptide 7); assay type: biochemical; details: human AMPK α1β1γ1, control without compound = 100%; for Emax: read-out: Emax (maximum rate of increase in activity within the measurement range)
T2 construct: purchased Carna Biosciences, Inc
Procedure: To a buffer solution consisting of a 50 mM HEPES-NaOH buffer solution (pH 7.0), 100 mM NaCl, 10 mM magnesium chloride, 0.1% bovine serum albumin, 0.2 mM sodium orthovanadate(V), 1 mM ethylene glycol-bis(2-aminoethyl ether)-N,N,N′,N′-tetraacetic acid (EGTA), 5 mM disodium (3-glycerophosphate and 2 mM dithiothreitol, a human AMPK α1β1γ1 enzyme (manufactured by Carna Biosciences, Inc.) was added in an amount to give a conversion rate of approximately 10% by reaction for 2 hours, and a compound dissolved in DMSO was added thereto so as to have a 1% DMSO concentration. The obtained liquid was left to stand for 10 minutes.
as §1, with “ether)-N,N,N′,N′ tetraacetic” for “ether)-N,N,N′,N′-tetraacetic”, “β-glycerophosphate,” for “glycerophosphate,”
as §2

T1 sequence (P54646 whole entry): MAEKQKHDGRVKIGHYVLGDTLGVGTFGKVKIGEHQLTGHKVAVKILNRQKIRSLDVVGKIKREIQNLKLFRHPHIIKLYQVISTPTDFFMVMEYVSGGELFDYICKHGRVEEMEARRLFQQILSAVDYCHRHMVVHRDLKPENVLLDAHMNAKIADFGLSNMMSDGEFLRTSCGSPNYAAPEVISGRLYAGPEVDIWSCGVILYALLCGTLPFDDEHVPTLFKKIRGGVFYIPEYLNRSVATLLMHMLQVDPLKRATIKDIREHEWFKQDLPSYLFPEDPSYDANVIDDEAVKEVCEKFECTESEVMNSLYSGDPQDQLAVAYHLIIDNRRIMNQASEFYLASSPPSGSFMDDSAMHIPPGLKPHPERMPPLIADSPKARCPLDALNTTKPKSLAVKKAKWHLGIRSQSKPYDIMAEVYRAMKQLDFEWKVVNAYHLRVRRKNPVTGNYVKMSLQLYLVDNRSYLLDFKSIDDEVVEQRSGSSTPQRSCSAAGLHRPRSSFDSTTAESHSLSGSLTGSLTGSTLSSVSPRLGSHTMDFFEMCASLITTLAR
T1 sequence (O43741 whole entry): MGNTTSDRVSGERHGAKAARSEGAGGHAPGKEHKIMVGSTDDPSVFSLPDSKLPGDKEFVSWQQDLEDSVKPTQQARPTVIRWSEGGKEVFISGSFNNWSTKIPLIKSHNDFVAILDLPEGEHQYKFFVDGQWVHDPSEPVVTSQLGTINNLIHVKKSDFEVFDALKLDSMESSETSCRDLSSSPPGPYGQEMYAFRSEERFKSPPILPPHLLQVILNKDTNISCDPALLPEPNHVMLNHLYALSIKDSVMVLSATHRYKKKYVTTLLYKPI
T1 sequence (P54619 whole entry partner): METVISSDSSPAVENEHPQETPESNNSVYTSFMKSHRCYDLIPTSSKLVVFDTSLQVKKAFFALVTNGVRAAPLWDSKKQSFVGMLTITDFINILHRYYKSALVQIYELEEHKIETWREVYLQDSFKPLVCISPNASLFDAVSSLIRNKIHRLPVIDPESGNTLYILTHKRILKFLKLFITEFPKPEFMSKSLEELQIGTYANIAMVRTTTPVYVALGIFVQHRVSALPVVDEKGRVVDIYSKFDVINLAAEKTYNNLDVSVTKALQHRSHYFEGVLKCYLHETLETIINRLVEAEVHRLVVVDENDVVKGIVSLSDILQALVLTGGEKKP
T2 sequence (Q13131 10-559 limits assumed): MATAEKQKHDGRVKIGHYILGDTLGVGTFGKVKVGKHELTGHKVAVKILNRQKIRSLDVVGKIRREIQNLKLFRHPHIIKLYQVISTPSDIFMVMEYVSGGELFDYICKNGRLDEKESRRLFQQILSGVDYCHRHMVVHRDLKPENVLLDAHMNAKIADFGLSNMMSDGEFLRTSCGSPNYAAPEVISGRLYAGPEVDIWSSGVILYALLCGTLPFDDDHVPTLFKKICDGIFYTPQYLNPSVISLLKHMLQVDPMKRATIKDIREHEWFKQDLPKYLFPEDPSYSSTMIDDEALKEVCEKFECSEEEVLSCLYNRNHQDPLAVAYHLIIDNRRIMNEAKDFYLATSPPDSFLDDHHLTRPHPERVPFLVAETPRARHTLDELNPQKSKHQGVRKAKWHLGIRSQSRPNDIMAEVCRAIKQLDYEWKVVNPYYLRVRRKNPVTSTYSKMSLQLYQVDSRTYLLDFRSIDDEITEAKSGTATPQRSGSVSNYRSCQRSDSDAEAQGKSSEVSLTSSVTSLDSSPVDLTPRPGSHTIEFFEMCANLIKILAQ
T2 sequence (Q9Y478 whole entry): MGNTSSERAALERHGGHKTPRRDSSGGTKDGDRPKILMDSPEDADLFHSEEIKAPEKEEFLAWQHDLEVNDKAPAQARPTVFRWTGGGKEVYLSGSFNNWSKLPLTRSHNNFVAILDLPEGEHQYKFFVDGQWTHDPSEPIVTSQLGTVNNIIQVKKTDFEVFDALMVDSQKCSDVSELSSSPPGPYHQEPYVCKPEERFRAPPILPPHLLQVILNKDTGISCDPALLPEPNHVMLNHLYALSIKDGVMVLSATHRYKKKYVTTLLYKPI
T2 sequence (P54619 whole entry partner): as the sequence (P54619 whole entry partner) above

| Structure (SMILES) | EC150 (compound concentration showing 150% relative to the control) (Human AMPK α2β2γ1) [nM] | Emax (Human AMPK α2β2γ1) [%] | EC150 (compound concentration showing 150% relative to the control) (human AMPK α1β1γ1 enzyme) [nM] | Emax (human AMPK α1β1γ1 enzyme) [%] |
| --- | --- | --- | --- | --- |
| Cc1ccc(Oc2nc3nc(-c4ccc(N5CCOCC5)cc4)c(Cl)cc3[nH]2)cc1C(N)=O [Compound C-12] | 130 | 293 | 140 | 256 |
| Cc1ccc(Oc2nc3cc(Cl)c(-c4ccc(-c5ccccc5O)cc4)nc3[nH]2)cc1C(=O)O [Compound C-4] | 4.3 | 292 | 0.42 | 355 |
| Cc1ccc(Oc2nc3nc(-c4ccc5c(ccn5C)c4)c(Cl)cc3[nH]2)cc1C(=O)O [Compound A-2] | 74 | 406 | 7 | 408 |
| Cc1ccc(C(=O)O)cc1Oc1nc2nc(-c3ccc(N4CCOCC4)cc3)c(Cl)cc2[nH]1 [Compound B-108] | 410 | 341 | 27 | 340 |
| O=C(O)c1ccc(Oc2nc3nc(-c4ccc(N5CCOCC5)cc4)c(Cl)cc3[nH]2)cc1 [Compound B-101] | 1300 | 212 | 120 | 269 |
| CC(=O)NC(C)(C)c1ccc(Oc2nc3nc(-c4ccc(N5CCC(O)C5)cc4)c(Cl)cc3[nH]2)cc1 [Compound D-49] | 54 | 420 | 3.5 | 263 |
| Cc1ccc(Oc2nc3nc(-c4ccc(N5CCOCC5)cc4)c(Cl)cc3[nH]2)cn1 [Compound B-119] | 240 | 242 | 220 | 265 |
| O=C(O)C1(c2ccc(Oc3nc4nc(-c5ccc(N6CCCC6)cc5)c(Cl)cc4[nH]3)cc2)CC1 [Compound C-94] | 59 | 325 | 12 | 352 |
| Cc1ncc(Oc2nc3nc(-c4ccc(N5CCOCC5)cc4)c(Cl)cc3[nH]2)cn1 [Compound C-106] | 580 | 290 | 690 | 278 |
